Results taken from article PMC6277767, “Broad and Region-Specific Impacts of the Synthetic Cannabinoid CP 55,940 in Adolescent and Adult Female Mouse Brains” (Frontiers in Molecular Neuroscience, 2018).

Test system: CD1 female mouse brain lipidome
Experiment: Brain-region lipid levels (HPLC/MS/MS lipidomics) 2 h after single i.p. 3 mg/kg CP 55,940 vs vehicle
Type: in vivo
Design: N-arachidonoyl phenylalanine level, Mean / N-stearoyl tryptophan level, Mean / N-stearoyl proline level, Mean / N-stearoyl leucine level, Mean / N-stearoyl phenylalanine level, Mean / N-stearoyl serine level, Mean / N-stearoyl methionine level, Mean: unit: moles per gram
Experimental: The Bloomington Institutional Animal Care and Use Committee of Indiana University reviewed and approved the animal procedures. Female mice from the CD1 strain were utilized to match our study examining THC’s effects on the brain lipidome ([Leishman et al., 2018]). Mice were given a single i.p. injection of either 3 mg/kg CP or 1:1:18 cremophor:ethanol:saline vehicle (please refer to the section “3 mg/kg CP Is Relevant for Synthetic Cannabinoid Abuse and Has Stronger Effects on the Female Mouse Brain Lipidome During Adolescence” for a justification of dose and use of female mice). Three different age groups were given injections: PND 35 and PND 50 adolescents, and adult mice (PND 113). At least eight mice in each age group received CP and at least eight received vehicle. Matching the THC study time course ([Leishman et al., 2018]), mice were sacrificed via rapid decapitation 2 h after injection. Brains were immediately removed and flash-frozen in liquid nitrogen, and then stored at -80°C until dissections were performed. Brains were dissected on an ice-cold dissection plate into the following regions: STR, HIPP, CER, THAL, CTX, HYP, MID, and STEM. These abbreviations for these brain areas will be used exclusively when discussing the results generated by these specific dissections. Each dissected area was immediately placed in liquid nitrogen and then stored at -80°C until used for lipid extraction.
Tissue extracts were performed as previously described ([Bradshaw et al., 2006]; [Stuart et al., 2013]; [Raboune et al., 2014]; [Leishman et al., 2016a],[b], [2017], [2018]). First, samples were shock frozen in liquid nitrogen, weighed, and transferred to a centrifuge tube. The mass of the largest sample was multiplied by 50 to determine how many milliliters of HPLC-grade methanol (Fisher, Fair Lawn, NJ, United States) to add. Then, samples were spiked with 500 pmol deuterium-labeled NAGly (d8NAGly; Cayman Chemical, Ann Arbor, MI, United States). Samples were placed on ice in darkness for 2 h then individually homogenized and centrifuged at 19,000 × g for 20 min at 20°C. Supernatants were diluted with HPLC water (purified in house) to make a solution of 75% water, 25% supernatant. Lipids were partially purified on C18 solid phase extraction columns (Agilent, Palo Alto, CA, United States). A series of four elutions with 1.5 mL of 60%, 75%, 85%, and 100% methanol were collected ([Stuart et al., 2013]; [Leishman et al., 2016a],[b], [2018]).
As previously described ([Bradshaw et al., 2006]; [Tan et al., 2006]; [Smoum et al., 2010]; [Stuart et al., 2013]; [Tortoriello et al., 2013]; [Raboune et al., 2014]; [Leishman et al., 2016a],[b], [2017], [2018]), samples were analyzed using an Applied Biosystems API 3000 triple quadrupole mass spectrometer with electrospray ionization (Foster City, CA, United States). Using an Agilent XDB-C18 reversed phase analytical column and optimized mobile phase gradients, 20 μL from each elution were chromatographed. Two Shimadzu 10ADvp pumps (Columbia, MD, United States) provided the pressure for gradient elution. Mobile phase A: 20% methanol, 80% water (v/v) and 1 mM ammonium acetate (Sigma, St. Louis, MO, United States). Mobile phase B: 100% methanol, 1 mM ammonium acetate. Every method run began with 0% mobile phase B, reached 100% mobile phase B flowing at 0.2 mL/min, and gradually returned to 0% mobile phase B.
This screening library will be referred to as the lipidome when discussing data from this study. HPLC/MS/MS data were analyzed using Analyst software (Applied Biosystems) ([Bradshaw et al., 2006]; [Tan et al., 2006]; [Stuart et al., 2013]; [Tortoriello et al., 2013]; [Raboune et al., 2014]; [Leishman et al., 2016a],[b], [2017], [2018]). Chromatograms (Supplementary Figure 3) were generated by determining the retention time of analytes from the analytical column with a [M-1] or [M+1] parent peak and a fragmentation peak corresponding to the programmed values. […]

[1] = hypothalamus, PND 35 adolescent female mice, 3 mg/kg
[2] = midbrain, PND 50, 3mg/kg CP 55,940
[3] = midbrain, PND 50, 3mg/kg CP 55,940, ANOVA p .000
[4] = midbrain, PND 50, 3mg/kg CP 55,940, ANOVA p .001
[5] = midbrain, PND 50, 3mg/kg CP 55,940, ANOVA p .003
[6] = midbrain, PND 50 female mice, 3mg/kg CP 55,940

CCCCCCC(C)(C)c1ccc([C@@H]2C[C@H](O)CC[C@H]2CCCO)c(O)c1 [CP 55,940]
N-stearoyl leucine level, Mean [1]: 1.34E-12
N-stearoyl phenylalanine level, Mean [1]: 1.92E-12
N-stearoyl serine level, Mean [1]: 2.17E-11
N-stearoyl tryptophan level, Mean [1]: 7.7E-12
Oleic acid level, Mean [1]: 7.46E-10
PGE2 level, Mean [1]: 2.42E-10
PhosphoLEA level, Mean [1]: 6.47E-11
2-linoleoyl glycerol Direction (relative to Veh) [2]: ↓
2-oleoyl glycerol, Direction (relative to Veh) [2]: ↓
6-ketoPGF1α Direction (relative to Veh) [2]: ↓
Arachidonic acid, Direction (relative to Veh) [2]: ↓
Linoleic acid, Direction (relative to Veh) [2]: ↓
N-arachidonoyl GABA Direction (relative to Veh) [2]: ↓
N-arachidonoyl alanine, Direction (relative to Veh) [2]: ↓
N-arachidonoyl ethanolamine, Direction (relative to Veh) [2]: ↓
N-arachidonoyl glycine Direction (relative to Veh) [2]: ↓
N-arachidonoyl methionine, Direction (relative to Veh) [2]: ↓
N-arachidonoyl phenylalanine, Direction (relative to Veh) [2]: ↓
N-arachidonoyl tyrosine, Direction (relative to Veh) [2]: ↓
N-docosahexaenoyl GABA Direction (relative to Veh) [2]: ↓
N-docosahexaenoyl ethanolamine, Direction (relative to Veh) [2]: ↓
N-docosahexaenoyl leucine Direction (relative to Veh) [2]: ↑
N-linoleoyl ethanolamine, Direction (relative to Veh) [2]: ↓
N-oleoyl ethanolamine, Direction (relative to Veh) [2]: ↓
N-oleoyl methionine, Direction (relative to Veh) [2]: ↓
N-palmitoyl alanine, Direction (relative to Veh) [2]: ↓
N-palmitoyl ethanolamine, Direction (relative to Veh) [2]: ↓
N-palmitoyl leucine, Direction (relative to Veh) [2]: ↑
N-palmitoyl serine, Direction (relative to Veh) [2]: ↓
N-stearoyl methionine, Direction (relative to Veh) [2]: ↓
N-stearoyl phenylalanine, Direction (relative to Veh) [2]: ↓
PGE2 Direction (relative to Veh) [2]: ↓
PGF2α Direction (relative to Veh) [2]: ↓
Arachidonic acid, Magnitude (x Veh level) [3]: 0.74 x Veh level
N-arachidonoyl glycine Magnitude (x Veh level) [3]: 0.65 x Veh level
N-arachidonoyl methionine, Magnitude (x Veh level) [3]: 0.64 x Veh level
N-arachidonoyl phenylalanine, Magnitude (x Veh level) [3]: 0.69 x Veh level
N-arachidonoyl tyrosine, Magnitude (x Veh level) [4]: 0.68 x Veh level
PGE2 Magnitude (x Veh level) [4]: 0.75 x Veh level
N-palmitoyl leucine, Magnitude (x Veh level) (midbrain, PND 50, 3mg/kg CP 55,940, ANOVA p .002): 1.33 x Veh level
N-docosahexaenoyl GABA Magnitude (x Veh level) [5]: 0.71 x Veh level
N-linoleoyl ethanolamine, Magnitude (x Veh level) [5]: 0.81 x Veh level
Linoleic acid, Magnitude (x Veh level) (midbrain, PND 50, 3mg/kg CP 55,940, ANOVA p .004): 0.75 x Veh level
PGF2α Magnitude (x Veh level) (midbrain, PND 50, 3mg/kg CP 55,940, ANOVA p .007): 0.82 x Veh level
N-palmitoyl ethanolamine, Magnitude (x Veh level) (midbrain, PND 50, 3mg/kg CP 55,940, ANOVA p .011): 0.86 x Veh level
2-linoleoyl glycerol Magnitude (x Veh level) (midbrain, PND 50, 3mg/kg CP 55,940, ANOVA p .017): 0.82 x Veh level
N-arachidonoyl GABA Magnitude (x Veh level) (midbrain, PND 50, 3mg/kg CP 55,940, ANOVA p .021): 0.73 x Veh level
N-docosahexaenoyl ethanolamine, Magnitude (x Veh level) (midbrain, PND 50, 3mg/kg CP 55,940, ANOVA p .023): 0.81 x Veh level
N-oleoyl methionine, Magnitude (x Veh level) (midbrain, PND 50, 3mg/kg CP 55,940, ANOVA p .026): 0.54 x Veh level
N-arachidonoyl ethanolamine, Magnitude (x Veh level) (midbrain, PND 50, 3mg/kg CP 55,940, ANOVA p .031): 0.83 x Veh level
N-oleoyl ethanolamine, Magnitude (x Veh level) (midbrain, PND 50, 3mg/kg CP 55,940, ANOVA p .037): 0.83 x Veh level
N-stearoyl methionine, Magnitude (x Veh level) (midbrain, PND 50, 3mg/kg CP 55,940, ANOVA p .042): 0.78 x Veh level
N-palmitoyl serine, Magnitude (x Veh level) (midbrain, PND 50, 3mg/kg CP 55,940, ANOVA p .048): 0.84 x Veh level
N-arachidonoyl alanine Magnitude (x Veh level) (midbrain, PND 50, 3mg/kg CP 55,940, ANOVA p .057): 0.62 x Veh level
N-docosahexaenoyl leucine Magnitude (x Veh level) (midbrain, PND 50, 3mg/kg CP 55,940, ANOVA p .063): 1.47 x Veh level
2-oleoyl glycerol, Magnitude (x Veh level) (midbrain, PND 50, 3mg/kg CP 55,940, ANOVA p .073): 0.89 x Veh level
N-stearoyl phenylalanine, Magnitude (x Veh level) (midbrain, PND 50, 3mg/kg CP 55,940, ANOVA p .077): 0.85 x Veh level
N-palmitoyl alanine, Magnitude (x Veh level) (midbrain, PND 50, 3mg/kg CP 55,940, ANOVA p .081): 0.77 x Veh level
6-ketoPGF1α Magnitude (x Veh level) (midbrain, PND 50, 3mg/kg CP 55,940, ANOVA p .089): 0.75 x Veh level
2-arachidonoyl glycerol level, Mean [6]: 3.27E-10
2-linoleoyl glycerol level, Mean [6]: 3.73E-10
2-oleoyl glycerol level, Mean [6]: 4.95E-09
2-palmitoyl glycerol level, Mean [6]: 3.34E-09
6-ketoPGF1α level, Mean [6]: 1.22E-11
11-OH-THC level, Mean [6]: BDL
11-nor-9-carboxyTHC level, Mean [6]: BDL
Arachidonic acid level, Mean [6]: 3.1E-10
Cannabidiol level, Mean [6]: BDL
Linoleic acid level, Mean [6]: 2.67E-10
N- stearoyl valine level, Mean [6]: 9.43E-14
N-arachidonoyl GABA level, Mean [6]: 1.55E-11
N-arachidonoyl alanine level, Mean [6]: 9.08E-14
N-arachidonoyl dopamine level, Mean [6]: BDL
N-arachidonoyl ethanolamine level, Mean [6]: 3.81E-11
N-arachidonoyl glycine level, Mean [6]: 4.39E-12
N-arachidonoyl methionine level, Mean [6]: 1.8E-13
N-arachidonoyl phenylalanine level, Mean [6]: 5.45E-13
N-arachidonoyl proline level, Mean [6]: BDL
N-arachidonoyl serine level, Mean [6]: 7.6E-12
N-arachidonoyl taurine level, Mean [6]: 1.38E-11
N-arachidonoyl tryptophan level, Mean [6]: BDL
N-arachidonoyl tyrosine level, Mean [6]: 3.91E-13
N-docosahexaenoyl GABA level, Mean [6]: 1.45E-12
N-docosahexaenoyl alanine level, Mean [6]: PISSR
N-docosahexaenoyl ethanolamine level, Mean [6]: 5.23E-11
N-docosahexaenoyl glycine level, Mean [6]: 5.53E-13
N-docosahexaenoyl leucine level, Mean [6]: 1.28E-13
N-docosahexaenoyl methionine level, Mean [6]: BDL
N-docosahexaenoyl phenylalanine level, Mean [6]: 6.24E-13
N-docosahexaenoyl proline level, Mean [6]: BDL
N-docosahexaenoyl serine level, Mean [6]: 1.85E-11
N-docosahexaenoyl tryptophan level, Mean [6]: BDL
N-docosahexaenoyl tyrosine level, Mean [6]: 5.71E-13
N-docosahexaenoyl valine level, Mean [6]: PISSR
N-linoleoyl GABA level, Mean [6]: 1.04E-12
N-linoleoyl alanine level, Mean [6]: PISSR
N-linoleoyl ethanolamine level, Mean [6]: 5.21E-11
N-linoleoyl glycine level, Mean [6]: 2.23E-13
N-linoleoyl leucine level, Mean [6]: 3.86E-14
N-linoleoyl methionine level, Mean [6]: BDL
N-linoleoyl phenylalanine level, Mean [6]: 1.31E-13
N-linoleoyl proline level, Mean [6]: BDL
